Test results: patent publication US7342011B2, “Rifamycin analogs and uses thereof” (priority 2003, dated 2008)
In brackets after ≈: the same amount, converted by molar mass.

Experiments:
Assay type in all cases: cell-based
[1] = test system: E. coli; experiment: MIC assay, E. coli
[2] = test system: S. aureus; experiment: MIC assay, S. aureus
[3] = test system: S. pneumo.; experiment: MIC assay, S. pneumo.
[4] = test system: H. flu; experiment: MIC assay, H. flu
[5] = test system: E. faecalis; experiment: MIC assay, E. faecalis

Structure (SMILES) | MIC (μg/mL) E. coli [1] [µg/mL] | MIC (μg/mL) S. aureus [2] [µg/mL] | MIC (μg/mL) S. pneumo. [3] [µg/mL] | MIC (μg/mL) H. flu [4] [µg/mL] | MIC (μg/mL) E. faecalis [5] [µg/mL]
CO[C@H]1/C=C/O[C@@]2(C)Oc3c(C)c(O)c4c(=O)c(c5oc6cc(N7CCC(NC(=O)SC)CC7)cc(O)c6nc-5c4c3C2=O)NC(=O)/C(C)=C\C=C\[C@H](C)[C@H](O)[C@@H](C)[C@@H](O)[C@@H](C)[C@H](OC(C)=O)[C@@H]1C [Compound 45, 3′-hydroxy-5′-[4-S-methylthiocarbamyl-1-piperidinyl]benzoxazinorifamycin] | 8 (≈ 8220 nM) | 0.015 (≈ 15.4 nM) | 0.001 (≈ 1.03 nM) | 0.5 (≈ 514 nM) | 4 (≈ 4110 nM)
CO[C@H]1/C=C/O[C@@]2(C)Oc3c(C)c(O)c4c(=O)c(c5oc6cc(N7C[C@H]8CCCN(C(C)=O)[C@H]8C7)cc(O)c6nc-5c4c3C2=O)NC(=O)/C(C)=C\C=C\[C@H](C)[C@H](O)[C@@H](C)[C@@H](O)[C@@H](C)[C@H](O)[C@@H]1C [Compound 46, 25-O-deacetyl-3′-hydroxy-5′-[1-acetyl-(4aR,7aR)-octahydro-6H-pyrrolo[3,4-b]pyridin-6-yl]benzoxazinorifamycin] | >8 | 0.004 (≈ 4.32 nM) | 0.00006 (≈ 0.0649 nM) | 0.5 (≈ 541 nM) | 2 (≈ 2160 nM)
CO[C@H]1/C=C/O[C@@]2(C)Oc3c(C)c(O)c4c(=O)c(c5oc6cc(N7C[C@H]8CCCN(C(C)=O)[C@H]8C7)cc(O)c6nc-5c4c3C2=O)NC(=O)/C(C)=C\C=C\[C@H](C)[C@H](O)[C@@H](C)[C@@H](O)[C@@H](C)[C@H](OC(C)=O)[C@@H]1C [Compound 47, 3′-hydroxy-5′-[-acetyl-(4aR,7aR)-octahydro-6H-pyrrolo[3,4-b]pyridin-6-yl]benzoxazinorifamycin] | >8 | 0.008 (≈ 8.27 nM) | 0.002 (≈ 2.07 nM) | 0.25 (≈ 259 nM) | 1 (≈ 1030 nM)
CO[C@H]1/C=C/O[C@@]2(C)Oc3c(C)c(O)c4c(=O)c(c5oc6cc(N7CCC(NC(=O)OC(C)(C)C)CC7)cc(O)c6nc-5c4c3C2=O)NC(=O)/C(C)=C\C=C\[C@H](C)[C@H](O)[C@@H](C)[C@@H](O)[C@@H](C)[C@H](OC(C)=O)[C@@H]1C [Compound 48, 3′-hydroxy-5,′-[4-(2,2-dimethylethyl)carbamyl-1-piperidinyl]benzoxazinorifamycin] | >8 | 0.008 (≈ 8.01 nM) | 0.00025 (≈ 0.25 nM) | 1 (≈ 1000 nM) | 2 (≈ 2000 nM)
CO[C@H]1/C=C/O[C@@]2(C)Oc3c(C)c(O)c4c(=O)c(c5oc6cc(N7CCC(NC(=O)N8CCC(NC(=O)SC)CC8)CC7)cc(O)c6nc-5c4c3C2=O)NC(=O)/C(C)=C\C=C\[C@H](C)[C@H](O)[C@@H](C)[C@@H](O)[C@@H](C)[C@H](OC(C)=O)[C@@H]1C [Compound 49, 3′-hydroxy-5′-[4-(4-(S-methylthiocarbamyl)-1-piperidinylcarbonyl)amino-1-piperidinyl]benzoxazinorifamycin] | >8 | 0.06 (≈ 54.6 nM) | 0.0005 (≈ 0.455 nM) | 2 (≈ 1820 nM) | 8 (≈ 7280 nM)
CO[C@H]1/C=C/O[C@@]2(C)Oc3c(C)c(O)c4c(=O)c(c5oc6cc(N7CCC(NC(=O)N8CCN(C)CC8)CC7)cc(O)c6nc-5c4c3C2=O)NC(=O)/C(C)=C\C=C\[C@H](C)[C@H](O)[C@@H](C)[C@@H](O)[C@@H](C)[C@H](OC(C)=O)[C@@H]1C [Compound 50, 3′-hydroxy-5′-[4-(4-methylpiperazinylcarbonyl)amino-1-piperidinyl]benzoxazinorifamycin] | >8 | 0.03 (≈ 29.3 nM) | 0.00012 (≈ 0.117 nM) | 0.5 (≈ 488 nM) | 4 (≈ 3900 nM)
CCOC(=O)NCC1CCN(c2cc(O)c3nc4c5c6c7c(C)c(O)c5c(=O)c(c-4oc3c2)NC(=O)/C(C)=C\C=C\[C@H](C)[C@H](O)[C@@H](C)[C@@H](O)[C@@H](C)[C@H](OC(C)=O)[C@H](C)[C@@H](OC)/C=C/O[C@@](C)(O7)C6=O)CC1 [Compound 51, 3′-hydroxy-5′-[4-ethylcarbamylmethyl-1-piperidinyl]benzoxazinorifamycin] | 8 (≈ 8120 nM) | 0.06 (≈ 60.9 nM) | 0.002 (≈ 2.03 nM) | 0.25 (≈ 254 nM) | 8 (≈ 8120 nM)
CO[C@H]1/C=C/O[C@@]2(C)Oc3c(C)c(O)c4c(=O)c(c5oc6cc(N7CCC(CNC(C)=O)CC7)cc(O)c6nc-5c4c3C2=O)NC(=O)/C(C)=C\C=C\[C@H](C)[C@H](O)[C@@H](C)[C@@H](O)[C@@H](C)[C@H](OC(C)=O)[C@@H]1C [Compound 55, 3′-hydroxy-5′-[4-acetylaminomethyl-1-piperidinyl]benzoxazinorifamycin] | 8 (≈ 8380 nM) | 0.008 (≈ 8.38 nM) | 0.00025 (≈ 0.262 nM) | 0.5 (≈ 524 nM) | 1 (≈ 1050 nM)
CO[C@H]1/C=C/O[C@@]2(C)Oc3c(C)c(O)c4c(=O)c(c5oc6cc(N7CCC(c8ccccc8)CC7)cc(O)c6nc-5c4c3C2=O)NC(=O)/C(C)=C\C=C\[C@H](C)[C@H](O)[C@@H](C)[C@@H](O)[C@@H](C)[C@H](OC(C)=O)[C@@H]1C [Compound 57, 3′-hydroxy-5′-[4-phenyl-1-piperidinyl]benzoxazinorifamycin] | 8 (≈ 8330 nM) | 0.008 (≈ 8.33 nM) | 0.0005 (≈ 0.521 nM) | 0.5 (≈ 521 nM) | 2 (≈ 2080 nM)
CO[C@H]1/C=C/O[C@@]2(C)Oc3c(C)c(O)c4c(=O)c(c5oc6cc(N7C[C@@H]8CCCN(C)[C@@H]8C7)cc(O)c6nc-5c4c3C2=O)NC(=O)/C(C)=C\C=C\[C@H](C)[C@H](O)[C@@H](C)[C@@H](O)[C@@H](C)[C@H](OC(C)=O)[C@@H]1C [Compound 58, 3′-hydroxy-5′-[1-methyl-(4aS,7aS)-octahydro-6H-pyrrolo[3,4-b]pyridin-6-yl]benzoxazinorifamycin] | >8 | 0.03 (≈ 31.9 nM) | 0.004 (≈ 4.26 nM) | 0.25 (≈ 266 nM) | 1 (≈ 1060 nM)
CO[C@H]1/C=C/O[C@@]2(C)Oc3c(C)c(O)c4c(=O)c(c5oc6cc(N7C[C@@H]8CCCN(C)[C@@H]8C7)cc(O)c6nc-5c4c3C2=O)NC(=O)/C(C)=C\C=C\[C@H](C)[C@H](O)[C@@H](C)[C@@H](O)[C@@H](C)[C@H](O)[C@@H]1C [Compound 59, 25-O-deacetyl-3′-hydroxy-5′-[1-methyl-(4aS,7aS)-octahydro-6H-pyrrolo[3,4-b]pyridin-6-yl]benzoxazinorifamycin] | 4 (≈ 4460 nM) | 0.004 (≈ 4.46 nM) | 0.001 (≈ 1.11 nM) | 0.12 (≈ 134 nM) | 0.06 (≈ 66.9 nM)
CO[C@H]1/C=C/O[C@@]2(C)Oc3c(C)c(O)c4c(=O)c(c5oc6cc(N7CCC(CCO)CC7)cc(O)c6nc-5c4c3C2=O)NC(=O)/C(C)=C\C=C\[C@H](C)[C@H](O)[C@@H](C)[C@@H](O)[C@@H](C)[C@H](OC(C)=O)[C@@H]1C [Compound 61, 3′-hydroxy-5′-[4-(2-hydroxyethyl)-1-piperidinyl]benzoxazinorifamycin] | >8 | 0.004 (≈ 4.31 nM) | 0.00012 (≈ 0.129 nM) | 0.25 (≈ 269 nM) | 1 (≈ 1080 nM)
CO[C@H]1/C=C/O[C@@]2(C)Oc3c(C)c(O)c4c(=O)c(c5sc6cc(N7C[C@@H](C)N[C@@H](C)C7)ccc6nc-5c4c3C2=O)NC(=O)/C(C)=C\C=C\[C@H](C)[C@H](O)[C@@H](C)[C@@H](O)[C@@H](C)[C@H](OC(C)=O)[C@@H]1C [Compound 64, 5′-[(3R,5S)-3,5-dimethyl-1-piperazinyl]benzthiazinorifamycin] | 4 (≈ 4380 nM) | 0.004 (≈ 4.38 nM) | 0.00012 (≈ 0.131 nM) | 0.25 (≈ 274 nM) | 0.12 (≈ 131 nM)
CO[C@H]1/C=C/O[C@@]2(C)Oc3c(C)c(O)c4c(=O)c(c5oc6cc(N7CCC(CCO)CC7)cc(O)c6nc-5c4c3C2=O)NC(=O)/C(C)=C\C=C\[C@H](C)[C@H](O)[C@@H](C)[C@@H](O)[C@@H](C)[C@H](O)[C@@H]1C [Compound 66, 25-O-deacetyl-3′-hydroxy-5′-[4-(2-hydroxyethyl)-1-piperidinyl]benzoxazinorifamycin] | 4 (≈ 4510 nM) | 0.004 (≈ 4.51 nM) | 0.0005 (≈ 0.564 nM) | 0.12 (≈ 135 nM) | 0.12 (≈ 135 nM)
CO[C@H]1/C=C/O[C@@]2(C)Oc3c(C)c(O)c4c(=O)c(c5sc6cc(N7C[C@@H](C)N(CC8CC8)C[C@@H]7C)ccc6nc-5c4c3C2=O)NC(=O)/C(C)=C\C=C\[C@H](C)[C@H](O)[C@@H](C)[C@@H](O)[C@@H](C)[C@H](OC(C)=O)[C@@H]1C [Compound 68, 5′-[(2S,5R)-4-(cyclopropylmethyl)-2,5-dimethylpiperazinyl]benzthiazinorifamycin] | >8 | 0.06 (≈ 62 nM) | 0.0005 (≈ 0.517 nM) | 0.5 (≈ 517 nM) | 2 (≈ 2070 nM)
CO[C@H]1/C=C/O[C@@]2(C)Oc3c(C)c(O)c4c(=O)c(c5sc6cc(N7CCC(N(C)C)CC7)ccc6nc-5c4c3C2=O)NC(=O)/C(C)=C\C=C\[C@H](C)[C@H](O)[C@@H](C)[C@@H](O)[C@@H](C)[C@H](OC(C)=O)[C@@H]1C [Compound 69, 5′-[4-N,N-dimethylamino-1-piperidinyl]benzthiazinorifamycin] | 4 (≈ 4310 nM) | 0.015 (≈ 16.2 nM) | 0.00025 (≈ 0.27 nM) | 0.5 (≈ 539 nM) | 0.5 (≈ 539 nM)
